molecular target: Serotonin 5-HT2A (human) (Homo sapiens (Human), UniProt P28223); assay: 5-HT2A receptor binding, [3H]-ketanserin competition in membrane fractions; details: 1 nM [3H]-ketanserin, Cheng-Prusoff, N=1-3

Row | SMILES | 5-HT2A pKi ± SEM
1 | CCCN(CC)CCc1c[nH]c2ccc(F)c(F)c12 [compound 21, N-(2-(4,5-difluoro-1H-indol-3-yl)ethyl)-N-ethylpropan-1-amine] | 6.15
2 | CCN(C)CCc1c[nH]c2c(C)cc(F)cc12 [compound 169, N-ethyl-2-(5-fluoro-7-methyl-1H-indol-3-yl)-N-methylethan-1-amine] | 6.05
3 | C#CCN(CCc1c[nH]c2ccc(F)cc12)C(C)C [compound 34, N-(2-(5-fluoro-1H-indol-3-yl)ethyl)-N-isopropylprop-2-yn-1-amine] | 5.78
4 | C=CCN(CCC)CCc1c[nH]c2ccc(F)cc12 [compound 35, N-(2-(5-fluoro-1H-indol-3-yl)ethyl)-N-propylprop-2-en-1-amine] | 6.38 ± 0.29
5 | CC(C)N(CC#N)CCc1c[nH]c2ccc(F)cc12 [compound 17, 2-((2-(5-fluoro-1H-indol-3-yl)ethyl)(isopropyl)amino)acetonitrile] | 5.41
6 | CCN(C)CCc1c[nH]c2c(F)cccc12 [Example 7, N-ethyl-2-(7-fluoro-1H-indol-3-yl)-N-methylethan-1-amine] | 6.02
7 | CC(C)CN(C)CCc1c[nH]c2ccc(F)cc12 [compound 39, N-(2-(5-fluoro-1H-indol-3-yl)ethyl)-N,2-dimethylpropan-1-amine] | 6.12
8 | CCCN(CC)CCc1c[nH]c2cc(Cl)c(F)cc12 [compound 37, N-(2-(6-chloro-5-fluoro-1H-indol-3-yl)ethyl)-N-ethylpropan-1-amine] | 6.04 ± 0.05
9 | CCCN1CCC[C@@H]1Cc1c[nH]c2ccc(F)cc12 [compound 184, (R)-5-fluoro-3-((1-propylpyrrolidin-2-yl)methyl)-1H-indole] | 6.60
10 | CCC(C)N(CC#N)CCc1c[nH]c2ccc(F)cc12 (centres unmarked) [compound 177, 2-(sec-butyl(2-(5-fluoro-1H-indol-3-yl)ethyl)amino)acetonitrile] | 5.71
11 | CN1CCC[C@@H]1Cc1c[nH]c2c(F)cccc12 [compound 186, (R)-7-fluoro-3-((1-methylpyrrolidin-2-yl)methyl)-1H-indole] | 6.47
12 | CCCN(CCc1c[nH]c2c(F)cccc12)C(C)CC (centres unmarked) [compound 163, N-[2-(7-fluoro-1H-indol-3-yl)ethyl]-N-propylbutan-2-amine] | 5.65 ± 0.004
13 | CCCN(CC)CCc1c[nH]c2c(F)cc(F)cc12 [compound 72, N-[2-(5,7-difluoro-1H-indol-3-yl)ethyl]-N-ethylpropan-1-amine] | 6.30 ± 0.06
14 | CCCN(CCc1c[nH]c2c(F)cccc12)C1CCC1 [compound 162, N-(2-(7-fluoro-1H-indol-3-yl)ethyl)-N-propylcyclobutanamine] | 5.91
15 | CCC(C)N(CCc1c[nH]c2ccc(F)cc12)C1CCC1 (centres unmarked) [compound 158, N-(sec-butyl)-N-(2-(5-fluoro-1H-indol-3-yl)ethyl)cyclobutanamine] | 6.08 ± 0.15
16 | CN(CCc1c[nH]c2ccc(F)cc12)C1CC1 [compound 160, N-(2-(5-fluoro-1H-indol-3-yl)ethyl)-N-methylcyclopropanamine] | 7.41 ± 0.33
17 | CCCN(CCc1c[nH]c2ccc(F)cc12)C1CC1 [compound 161, N-[2-(5-fluoro-1H-indol-3-yl)ethyl]-N-propylcyclopropanamine] | 6.50
18 | CCN(C)CCc1c[nH]c2c(Cl)cc(F)cc12 [compound 182, 2-(7-chloro-5-fluoro-1H-indol-3-yl)-N-ethyl-N-methylethan-1-amine] | 6.62
19 | CN1CCC[C@@H]1Cc1c[nH]c2cc(F)c(F)cc12 [compound 185, (R)-5,6-difluoro-3-((1-methylpyrrolidin-2-yl)methyl)-1H-indole] | 6.90
20 | C=CCN(CCc1c[nH]c2ccc(F)cc12)C1CCC1 [Example 14, N-allyl-N-(2-(5-fluoro-1H-indol-3-yl)ethyl)cyclobutanamine] | 6.09

From patent publication US20240286998A1, “F[…], ANALOGUES THEREOF, AND METHODS USING SAME” (Saint Joseph's University, priority 2021, published 2024)
